# Measurements: patent US10100045B2, “3-aryl-2H-pyrazolo[4,3-b]pyridine compounds and their use as AMPA receptor modulators” (Janssen Pharmaceutica NV, priority 2016, dated 2018)
# Biological target: GluA1o-γ8 (GRIA1o-CACNG8 fusion construct; TARP γ8 dependent AMPA receptor) (Homo sapiens (Human), UniProt P42261+Q8WXS5)
# Assay: Calcium flux assay (FLIPR), inhibition of glutamate response of GluA1o-γ8 channel
# Assay type: cell-based
# Details: HEK293 cells stably expressing GRIA1o-CACNG8 fusion; 15 μM glutamate; negative log of the IC50 in molar
# Excerpt: This assay was used to test compounds for their ability to inhibit TARP γ8 dependent AMPA receptor activity. The AMPA receptor is a non-selective cation channel activated by glutamate. Ionotropic glutamate receptors normally desensitize too rapidly to allow detectable calcium influx in a FLIPR assay (Strange et al. (2006). “Functional characterisation of homomeric ionotropic glutamate receptors GluR1-GluR6 in a fluorescence-based high throughput screening assay.” Comb Chem High Throughput Screen 9(2): 147-158). But, this desensitization is incomplete, and a substantial steady-state current remains in the sustained presence of glutamate (Cho et al. (2007). “Two families of TARP isoforms that have distinct effects on the kinetic properties of AMPA receptors and synaptic currents.” Neuron 55(6): 890-904). An in vitro assay was used to determine the potency of test compounds as inhibitors of the glutamate response of the channel formed by GluA1o-γ8. To ensure a 1:1 stoichiometry of GluA1o and γ8 subunits in the expressed channel, a fusion of the cDNAs for GRIA1o and CACNG8 was used. Following Shi et al (2009) “The stoichiometry of AMPA receptors and TARPs varies by neuronal cell type.” Neuron 62(5): 633-640), the C-terminus of the cDNA for GRIA1o was fused to the N-terminus of the cDNA for γ8. The linker sequence was QQQQQQQQQQEFAT. Channels expressed with this construct appear to have similar properties to channels formed by co-expression of GRIA1o with an excess of CACNG8 (Shi et al. 2009). A clonal cell line in HEK293 cells stably expressing this construct, with a geneticin selection marker, was generated for use in this assay.
# Cell expressing the GRIA1o-CACNG8 fusion construct were grown in a monolayer in 96- or 384-well microtiter plates. They were washed with assay buffer (135 mM NaCl, 4 mM KCl, 3 mM CaCl2, 1 mM MgCl2, 5 mM glucose, 10 mM HEPES, pH 7.4, 300 mOs) using a Biotek EL405 plate washer. The cells were then loaded with a calcium-sensitive dye (Calcium-5 or Calcium-6, Molecular Devices) and the test compounds at a range of concentrations. Calcium flux following the addition of 15 μM glutamate was monitored using a Molecular Devices FLIPR Tetra. The fluorescence in each well was normalized to the fluorescence of negative and positive control wells. The negative control wells had no added compounds, and the positive control wells had been incubated with 10 μM CP465022 (a non-subtype-selective AMPA receptor antagonist) (Lazzaro et al. (2002). “Functional characterization of CP-465,022, a selective, noncompetitive AMPA receptor antagonist.” Neuropharmacology 42(2): 143-153). The responses to glutamate as functions of the test compound concentrations were fitted to a four-parameter logistic function. The fitted parameter corresponding to the midpoint was taken to be the potency of inhibition of the compound. The data in Table 3 below illustrates the observed potentcy for the compounds described herein. pIC50 refers to the negative log of the IC50 in molar.
# Sequence of GluA1o-γ8 (GRIA1o-CACNG8 fusion construct; TARP γ8 dependent AMPA receptor) (P42261 other isoform, or with tags, fused parts or gaps): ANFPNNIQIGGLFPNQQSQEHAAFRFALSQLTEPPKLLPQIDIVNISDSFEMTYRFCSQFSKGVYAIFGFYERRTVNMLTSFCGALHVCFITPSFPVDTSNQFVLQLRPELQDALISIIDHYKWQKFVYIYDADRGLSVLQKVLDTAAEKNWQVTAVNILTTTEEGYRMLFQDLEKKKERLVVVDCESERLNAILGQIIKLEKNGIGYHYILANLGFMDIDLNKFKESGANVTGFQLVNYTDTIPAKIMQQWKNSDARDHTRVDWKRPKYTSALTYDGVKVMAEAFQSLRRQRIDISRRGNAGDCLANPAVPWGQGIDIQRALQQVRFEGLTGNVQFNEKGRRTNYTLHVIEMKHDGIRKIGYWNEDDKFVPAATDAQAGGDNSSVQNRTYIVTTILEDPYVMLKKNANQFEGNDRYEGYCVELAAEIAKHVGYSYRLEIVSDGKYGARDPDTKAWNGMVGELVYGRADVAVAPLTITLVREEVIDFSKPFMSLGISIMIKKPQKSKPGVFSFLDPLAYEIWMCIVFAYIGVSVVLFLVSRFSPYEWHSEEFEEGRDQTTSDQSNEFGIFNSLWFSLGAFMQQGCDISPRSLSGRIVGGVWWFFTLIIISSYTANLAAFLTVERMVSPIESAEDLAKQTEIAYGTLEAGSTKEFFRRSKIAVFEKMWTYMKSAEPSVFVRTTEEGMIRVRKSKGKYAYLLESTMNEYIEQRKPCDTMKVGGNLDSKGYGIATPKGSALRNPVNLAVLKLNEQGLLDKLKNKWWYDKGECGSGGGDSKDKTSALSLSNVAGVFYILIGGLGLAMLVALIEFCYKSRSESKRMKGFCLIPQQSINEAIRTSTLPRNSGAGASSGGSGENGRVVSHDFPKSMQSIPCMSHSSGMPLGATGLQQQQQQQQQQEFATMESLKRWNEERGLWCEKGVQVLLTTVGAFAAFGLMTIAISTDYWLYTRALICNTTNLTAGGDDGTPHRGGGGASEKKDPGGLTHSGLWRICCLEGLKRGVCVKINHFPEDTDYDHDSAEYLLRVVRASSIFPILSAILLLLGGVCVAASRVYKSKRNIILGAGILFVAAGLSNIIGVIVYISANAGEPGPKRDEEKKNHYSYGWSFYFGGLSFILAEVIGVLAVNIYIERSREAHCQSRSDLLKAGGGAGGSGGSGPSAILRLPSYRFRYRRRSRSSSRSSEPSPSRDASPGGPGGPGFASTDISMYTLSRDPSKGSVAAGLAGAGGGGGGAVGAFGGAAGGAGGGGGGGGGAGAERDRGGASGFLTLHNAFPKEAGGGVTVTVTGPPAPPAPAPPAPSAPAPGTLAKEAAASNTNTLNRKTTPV
pIC50,IC50 [nM],SMILES
7.9,–,"Cc1cc(-c2c3nc(C(F)(F)F)ccc3nn2C)cc2c1NC(=O)C2 [Example 2, 7-Methyl-5-(2-methyl-5-(trifluoromethyl)-2H-pyrazolo[4,3-b]pyridin-3-yl)indolin-2-one]"
7.0,–,"CCn1nc2ccc(C(F)(F)F)nc2c1-c1ccc2[nH]c(=O)[nH]c2c1 [Example 4, 5-(2-Ethyl-5-(trifluoromethyl)-2H-pyrazolo[4,3-b]pyridin-3-yl)-1,3-dihydro-2H-benzo[d]imidazol-2-one]"
7.6,–,"CC(C)n1nc2ccc(C(F)(F)F)nc2c1-c1ccc2[nH]c(=O)[nH]c2c1 [Example 5, 5-(2-Isopropyl-5-(trifluoromethyl)-2H-pyrazolo[4,3-b]pyridin-3-yl)-1,3-dihydro-2H-benzo[d]imidazol-2-one]"
8.5,–,"FC(F)(F)c1ccc2nn(-c3ccccc3)c(-c3ccc4[nH]ncc4c3)c2n1 [Example 11, 3-(1H-Indazol-5-yl)-2-phenyl-5-(trifluoromethyl)-2H-pyrazolo[4,3-b]pyridine]"
6.9,–,"FC(F)(F)c1ccc2nn(-c3ccccn3)c(-c3ccc4[nH]ncc4c3)c2n1 [Example 14, 3-(1H-Indazol-5-yl)-2-(pyridin-2-yl)-5-(trifluoromethyl)-2H-pyrazolo[4,3-b]pyridine]"
8.3,–,"CCn1nc2ccc(C(F)(F)F)nc2c1-c1cc(C)c2c(c1)CC(=O)N2 [Example 17, 5-(2-Ethyl-5-(trifluoromethyl)-2H-pyrazolo[4,3-b]pyridin-3-yl)-7-methylindolin-2-one]"
8.6,–,"CCn1nc2ccc(C(F)(F)F)nc2c1-c1cc(Cl)c2c(c1)CC(=O)N2 [Example 18, 7-Chloro-5-(2-ethyl-5-(trifluoromethyl)-2H-pyrazolo[4,3-b]pyridin-3-yl)indolin-2-one]"
9.6,–,"Cc1cc(-c2c3nc(C(F)(F)F)ccc3nn2C(C)C)cc2cn[nH]c12 [Example 23, 2-Isopropyl-3-(7-methyl-1H-indazol-5-yl)-5-(trifluoromethyl)-2H-pyrazolo[4,3-b]pyridine]"
9.2,–,"Cc1cc(-c2c3nc(C(F)(F)F)ccc3nn2C(F)F)cc2cn[nH]c12 [Example 30, 2-(Difluoromethyl)-3-(7-methyl-1H-indazol-5-yl)-5-(trifluoromethyl)-2H-pyrazolo[4,3-b]pyridine]"

# The remaining lines, values behind:
SMILES,pIC50,IC50 [nM]
"Cn1nc2ccc(C(F)(F)F)nc2c1-c1ccc2[nH]c(=O)[nH]c2c1 [Example 1, 5-(2-Methyl-5-(trifluoromethyl)-2H-pyrazolo[4,3-b]pyridin-3-yl)-1,3-dihydro-2H-benzo[d]imidazol-2-one]",6.5,–
"Cc1cc(-c2c3nc(C(F)(F)F)ccc3nn2C(F)F)cc2c1NC(=O)C2 [Example 3, 5-[2-(Difluoromethyl)-5-(trifluoromethyl)pyrazolo[4,3-b]pyridin-3-yl]-7-methyl-indolin-2-one]",9.0,–
"O=c1[nH]c2ccc(-c3c4nc(C(F)(F)F)ccc4nn3CC3CCC3)cc2[nH]1 [Example 6, 5-(2-(Cyclobutylmethyl)-5-(trifluoromethyl)-2H-pyrazolo[4,3-b]pyridin-3-yl)-1,3-dihydro-2H-benzo[d]imidazol-2-one]",6.9,–
"O=c1[nH]c2ccc(-c3c4nc(C(F)(F)F)ccc4nn3C3CCCC3)cc2[nH]1 [Example 7, 5-(2-Cyclopentyl-5-(trifluoromethyl)-2H-pyrazolo[4,3-b]pyridin-3-yl)-1,3-dihydro-2H-benzo[d]imidazol-2-one]",7.8,–
"Cc1cc(-c2c3nc(C(F)(F)F)ccc3nn2C2CCCC2)cc2cn[nH]c12 [Example 8, 2-Cyclopentyl-3-(7-methyl-1H-indazol-5-yl)-5-(trifluoromethyl)-2H-pyrazolo[4,3-b]pyridine]",9.9,–
"O=c1[nH]c2ccc(-c3c4nc(C(F)(F)F)ccc4nn3-c3ccccc3)cc2[nH]1 [Example 9, 5-(2-Phenyl-5-(trifluoromethyl)-2H-pyrazolo[4,3-b]pyridin-3-yl)-1,3-dihydro-2H-benzo[d]imidazol-2-one]",8.8,–
"O=C1Cc2cc(-c3c4nc(C(F)(F)F)ccc4nn3-c3ccccc3)ccc2N1 [Example 10, 5-(2-Phenyl-5-(trifluoromethyl)-2H-pyrazolo[4,3-b]pyridin-3-yl)indolin-2-one]",8.2,–
"FC(F)(F)c1ccc2nn(C3CCC3)c(-c3ccc4[nH]ncc4c3)c2n1 [Example 12, 2-Cyclobutyl-3-(1H-indazol-5-yl)-5-(trifluoromethyl)-2H-pyrazolo[4,3-b]pyridine]",9.2,–
"COCCn1nc2ccc(C(F)(F)F)nc2c1-c1ccc2[nH]ncc2c1 [Example 13, 3-(1H-Indazol-5-yl)-2-(2-methoxyethyl)-5-(trifluoromethyl)-2H-pyrazolo[4,3-b]pyridine]",6.1,–
"Cc1cc(-c2c3nc(C(F)(F)F)ccc3nn2C)cc2cn[nH]c12 [Example 15, 2-Methyl-3-(7-methyl-1H-indazol-5-yl)-5-(trifluoromethyl)-2H-pyrazolo[4,3-b]pyridine]",9.0,–
"Cn1nc2ccc(C(F)(F)F)nc2c1-c1cc(Cl)c2[nH]ncc2c1 [Example 16, 3-(7-Chloro-1H-indazol-5-yl)-2-methyl-5-(trifluoromethyl)-2H-pyrazolo[4,3-b]pyridine]",9.5,–
"CCn1nc2ccc(C(F)(F)F)nc2c1-c1cc(C)c2[nH]ncc2c1 [Example 19, 2-Ethyl-3-(7-methyl-1H-indazol-5-yl)-5-(trifluoromethyl)-2H-pyrazolo[4,3-b]pyridine]",–,0.794
"CCn1nc2ccc(C(F)(F)F)nc2c1-c1cc(Cl)c2[nH]ncc2c1 [Example 20, 3-(7-Chloro-1H-indazol-5-yl)-2-ethyl-5-(trifluoromethyl)-2H-pyrazolo[4,3-b]pyridine]",9.4,–
"Cc1cc(-c2c3nc(C(F)(F)F)ccc3nn2C(C)C)cc2c1NC(=O)C2 [Example 21, 5-(2-Isopropyl-5-(trifluoromethyl)-2H-pyrazolo[4,3-b]pyridin-3-yl)-7-methylindolin-2-one]",9.4,–
"CC(C)n1nc2ccc(C(F)(F)F)nc2c1-c1cc(Cl)c2c(c1)CC(=O)N2 [Example 22, 7-Chloro-5-(2-isopropyl-5-(trifluoromethyl)-2H-pyrazolo[4,3-b]pyridin-3-yl)indolin-2-one]",9.6,–
"CC(C)n1nc2ccc(C(F)(F)F)nc2c1-c1cc(Cl)c2[nH]ncc2c1 [Example 24, 3-(7-Chloro-1H-indazol-5-yl)-2-isopropyl-5-(trifluoromethyl)-2H-pyrazolo[4,3-b]pyridine]",10.2,–
"Cc1cc(-c2c3nc(C(F)(F)F)ccc3nn2C2CCC2)cc2c1NC(=O)C2 [Example 25, 5-(2-Cyclobutyl-5-(trifluoromethyl)-2H-pyrazolo[4,3-b]pyridin-3-yl)-7-methylindolin-2-one]",10.3,–
"O=C1Cc2cc(-c3c4nc(C(F)(F)F)ccc4nn3C3CCC3)cc(Cl)c2N1 [Example 26, 7-Chloro-5-(2-cyclobutyl-5-(trifluoromethyl)-2H-pyrazolo[4,3-b]pyridin-3-yl)indolin-2-one]",10.5,–
"Cc1cc(-c2c3nc(C(F)(F)F)ccc3nn2C2CCC2)cc2cn[nH]c12 [Example 27, 2-Cyclobutyl-3-(7-methyl-1H-indazol-5-yl)-5-(trifluoromethyl)-2H-pyrazolo[4,3-b]pyridine]",10.7,–
"FC(F)(F)c1ccc2nn(C3CCC3)c(-c3cc(Cl)c4[nH]ncc4c3)c2n1 [Example 28, 3-(7-Chloro-1H-indazol-5-yl)-2-cyclobutyl-5-(trifluoromethyl)-2H-pyrazolo[4,3-b]pyridine]",10.7,–
"O=C1Cc2cc(-c3c4nc(C(F)(F)F)ccc4nn3C(F)F)cc(Cl)c2N1 [Example 29, 7-Chloro-5-(2-(difluoromethyl)-5-(trifluoromethyl)-2H-pyrazolo[4,3-b]pyridin-3-yl)indolin-2-one]",8.6,–
"FC(F)n1nc2ccc(C(F)(F)F)nc2c1-c1cc(Cl)c2[nH]ncc2c1 [Example 31, 3-(7-Chloro-1H-indazol-5-yl)-2-(difluoromethyl)-5-(trifluoromethyl)-2H-pyrazolo[4,3-b]pyridine]",9.2,–
